Reference: patent publication US10265376B2, “Use of chelating agent and peptide antimicrobial compounds” (Consumo Em Verde Biotecnologia Das Plantas, S.A., priority 2010, dated 2019)

What was measured:
P. aeruginosa = experiment: Bacteriostatic/bactericidal activity of BLAD, EDTA and their combination against P. aeruginosa; assay type: cell-based, Pseudomonas aeruginosa; conditions: EDTA at 1 mg/ml alone
Streptomyces griseus = experiment: MIC of BLAD and EDTA against Streptomyces griseus; assay type: cell-based; conditions: EDTA alone
Botrytis cinerea = experiment: Inhibition halo for BLAD with and without EDTA against Botrytis cinerea on Potato Dextrose Agar; assay type: cell-based
Method: Inhibition Halo Data for BLAD with and without EDTA Against Botrytis cinerea on Potato Dextrose Agar (PDA) at 1.2% w/v of Agar (Incubation 3 Days at 25° C.): […]

Erwinia pirsicina = experiment: MIC of BLAD and EDTA against Erwinia pirsicina; assay type: cell-based; conditions: EDTA alone
Fusarium oxysporum = experiment: Inhibition halo for BLAD with and without EDTA against Fusarium oxysporum on Potato Dextrose Agar; assay type: cell-based
Method: Inhibition Halo Data for BLAD with and without EDTA Against Fusarium oxysporum on Potato Dextrose Agar (PDA) at 1.2% w/v of Agar (Incubation 3 Days at 25° C.): […]

[1] = EDTA 50 mM alone, PDA 1.2% w/v agar, 3 days at 25° C.
[2] = EDTA 50 mM alone, individual replicates, PDA 1.2% w/v agar, 3 days at 25° C.

Question: What does the source list for `O=C(O)CN(CCN(CC(=O)O)CC(=O)O)CC(=O)O` [EDTA, ethylenediaminetetraacetic acid]?
Answer: effect on growth (P. aeruginosa): inhibits growth; MIC (Streptomyces griseus): 16 mM; Average inhibition halo diameter (Botrytis cinerea; [1]): 0 mm; Inhibition halo diameter (Botrytis cinerea; [2]): 0 mm; growth inhibition (in words) (Botrytis cinerea; EDTA alone at 50 mM): No growth inhibition; MIC (Erwinia pirsicina): 15 mM; Average inhibition halo diameter (Fusarium oxysporum; [1]): 0 mm; Inhibition halo diameter (Fusarium oxysporum; [2]): 0 mm; growth inhibition (in words) (Fusarium oxysporum; EDTA alone at 50 mM): No growth inhibition
